Measurements as given in patent publication US20100035753A1, “Fungicidal Mixtures Comprising Substituted 1-methylpyrazol-4-ylcarboxanilides” (BASF SE, priority 2007, published 2010).
Where two headings read alike, the source gives them in different places.

Key:
[1] = system: Pyricularia oryzae; type: cell-based; details: 0.25 ppm
[2] = system: Phytophthora infestans; type: cell-based
[3] = system: Phytophthora infestans; type: cell-based; remark: listed apart in the source
[4] = system: Puccinia recondita; experiment: Use Example 5: curative control of brown rust on wheat; type: in vivo
Description: (§1) The active compounds, separately or jointly, were prepared as a stock solution comprising 25 mg of active compound which was made up to 10 ml using a mixture of acetone and/or DMSO and the emulsifier Uniperol® EL (wetting agent having an emulsifying and dispersing action based on ethoxylated alkylphenols) in a ratio by volume of solvent/emulsifier of 99:1. The mixture was then made up to 100 ml with water. This stock solution was diluted with the solvent/emulsifier/water mixture described to give the concentration of active compound stated below.
(§2) The visually determined percentages of infected leaf areas were converted into efficacies in % of the untreated control:
(§3) The efficacy (E) is calculated as follows using Abbot's formula: […]
(§4) α corresponds to the fungicidal infection of the treated plants in % and
(§5) β corresponds to the fungicidal infection of the untreated (control) plants in %
(§6) An efficacy of 0 means that the infection level of the treated plants corresponds to that of the untreated control plants; an efficacy of 100 means that the treated plants were not infected.
(§7) The expected efficacies of active compound combinations were determined using Colby's formula (Colby, S. R. “Calculating synergistic and antagonistic responses of herbicide combinations”, Weeds, 15, pp. 20-22, 1967) and compared with the observed efficacies.
(§8) Colby's formula: E=x+y−x·y/100 • E expected efficacy, expressed in % of the untreated control, when using the mixture of the active compounds A and B at the concentrations a and b • x efficacy, expressed in % of the untreated control, when using the active compound A at the concentration a • y efficacy, expressed in % of the untreated control, when using the active compound B at the concentration b
The first two developed leaves of pot-grown wheat seedling were dusted with spores of Puccinia recondita. To ensure the success the artificial inoculation, the plants were transferred to a humid chamber without light and a relative humidity of 95 to 99% and 20 to 22° C. for 24 h. The next day the plants were sprayed to run-off with an aqueous suspension, containing the concentration of active ingredient or their mixture as described below. The plants were allowed to air-dry. Then the trial plants were cultivated for 8 days in a greenhouse chamber at 22-26° C. and a relative humidity between 65 and 70%. The extent of fungal attack on the leaves was visually assessed as % diseased leaf area.

[5] = system: Phakopsora pachyrhizi; experiment: Use Example 8: curative control of soy bean rust on soy beans; type: in vivo; details: 0.25 ppm
Description: as §1, §2, §3, §4
(§9) β corresponds to the fungicidal infection of the untreated (control) plants in % […]
(§10) The expected efficacies of active compound combinations were determined using Colby's formula (Colby, S. R. “Calculating synergistic and antagonistic responses of herbicide combinations”, Weeds, 15, pp. 20-22, 1967) and compared with the observed efficacies. […]
Leaves of pot-grown soy bean seedlings were inoculated with spores of Phakopsora pachyrhizi. […] The extent of fungal attack on the leaves was visually assessed as % diseased leaf area.

[6] = system: Botrytis cinerea; experiment: Use Example 2: preventative control of grey mold on leaves of green pepper; type: in vivo; details: 4 ppm
Description: as §1, §2, §3, §4, §9, §10
Young seedlings of green pepper were grown in pots to the 2 to 3 leaf stage. […] After 5 days at 22 to 24° C. and a relative humidity close to 100% the extent of fungal attack on the leaves was visually assessed as % diseased leaf area.

[7] = system: Phytophthora infestans; type: in vivo
[8] = system: Septoria tritici
[9] = system: Ramularia collo-cygni/Physiological leaf spots; experiment: Control of phytopathogenic fungi in barley (statement in the description); type: in vivo; details: solo or in combination with an active compound II
[10] = system: Pyrenophora teres; experiment: Use Example 7: control of net blotch on barley; type: in vivo, Pyrenophora (syn. Drechslera) teres
Description: as §1, §2, §3, §10
The first fully developed leaves of pot grown barley plants were sprayed to run-off with an aqueous suspension, containing the concentration of active ingredient or their mentioned in the table below. […] After 6 days of cultivation at 20-24° C. and a relative humidity close to 70%, the extent of fungal attack on the leaves was visually assessed as % leaf area.

[11] = system: Alternaria solani; experiment: Use Example 1: preventative fungicidal control of early blight on tomatoes; type: in vivo; details: 0.25 ppm
Description: as §1, §2, §3, §4, §5, §6, §7, §8
Young seedlings of tomato plants were grown in pots. […] After 5 days at 20 to 22° C. and a relative humidity close to 100%, the extent of fungal attack on the leaves was visually assessed as % diseased leaf area.

[12] = system: Blumeria graminis f. sp. tritici; experiment: Use Example 4: control of powdery mildew on wheat; type: in vivo; details: 0.25 ppm
Description: as §1, §2, §3, §10
The first fully developed leaves of pot grown wheat were sprayed to run-off with an aqueous suspension, containing the concentration of active ingredient or their mixture mentioned in the table below. […] After cultivation in the greenhouse for 7 days at 22-26° C. and a relative humidity between 60 to 90% the extent of fungal attack on the leaves was visually assessed as % diseased leaf area.

[13] = system: Puccinia recondita; experiment: Use Example 6: preventative control of brown rust on wheat; type: in vivo; details: 0.25 ppm
Description: as §1, §2, §3
α corresponds to the fungicidal infection of the treated plants in % and […]
as §10
The first two developed leaves of pot-grown wheat seedling were sprayed to run-off with an aqueous suspension, containing the concentration of active ingredient or their as described below. […] The extent of fungal attack on the leaves was visually assessed as % diseased leaf area.

[14] = system: Botrytis cinerea; experiment: Use Example 9.2: activity against grey mold in the microtiterplate test; type: cell-based
[15] = system: Pyricularia oryzae; type: cell-based
[16] = system: Septoria tritici; experiment: Use Example 13: control of Septoria tritici; type: cell-based

COC(=O)[C@@H](C)N(C(=O)Cc1ccccc1)c1c(C)cccc1C [Benalaxyl-M, benalaxyl-M, reference compound]
Observed activity (%) [1]: 0%
Observed activity (% infection) ([2]; 16 ppm): 18%

C[N+]1(C)CCCCC1 [Mepiquat-chloride]
Observed activity (% infection) ([3]; 63 ppm): 14%

Cc1nn(C)c(F)c1C(=O)Nc1ccccc1C(C)CC(C)C (centres unmarked) [N-(2-(1,3-dimethylbutyl)-phenyl)-1,3-dimethyl-5-fluoro-1H-pyrazole-4-carboxylic acid amide]
Observed efficacy (% of untreated control) ([4]; 0.25 ppm): 0%
Observed efficacy (% of untreated control) ([4]; 1 ppm): 0%
Observed efficacy (% of untreated control) [5]: 60%
Observed efficacy (% of untreated control) [6]: 0%
Observed activity (% infection) ([7]; 1 ppm): 0%
Observed activity (% infection) ([7]; 4 ppm): 0%
Observed activity ([8]; 0.004 ppm): 1%

Cn1cc(C(=O)Nc2ccc(F)cc2-c2ccc(Cl)c(Cl)c2)c(C(F)F)n1 [N-(3′,4′-dichloro-5-fluorobiphenyl-2-yl)-1-methyl-3-difluoromethyl-1H-pyrazole-4-carboxamide]
activity against Ramularia collo-cygni/Physiological leaf spots [9]: excellent activity

CCN(C)C=Nc1cc(C)c(Oc2ccc(Cl)c(C(F)(F)F)c2)cc1C [N′-(4-(4-chloro-3-trifluoromethyl-phenoxy)-2,5-dimethyl-phenyl)-N-ethyl-N-methyl formamidine]
Observed efficacy (% of untreated control) ([10]; 0.25 ppm): 25%
Observed fungicidal efficacy (% of untreated control) [11]: 22%
Observed activity (% infection) ([7]; 1 ppm): 0%
Observed activity (% infection) ([2]; 4 ppm): 33%

CCN(C)C=Nc1cc(C)c(Oc2ccc(F)c(C(F)(F)F)c2)cc1C [N′-(4-(4-fluoro-3-trifluoromethyl-phenoxy)-2,5-dimethyl-phenyl)-N-ethyl-N-methyl formamidine]
Observed efficacy (% of untreated control) ([4]; 0.25 ppm): 67%
Observed efficacy (% of untreated control) ([10]; 1 ppm): 13%
Observed fungicidal efficacy (% of untreated control) [11]: 0%
Observed activity (% infection) ([7]; 16 ppm): 0%
Observed efficacy (% of untreated control) [12]: 38%

CCC(=O)C1=C([O-])CC(C(=O)[O-])CC1=O.[Ca+2] (centres unmarked) [Prohexadione-Ca]
Observed activity (% infection) ([3]; 16 ppm): 17%

CCOC(=O)C1CC(=O)C(=C(O)C2CC2)C(=O)C1 (centres unmarked) [Trinexapac-ethyl]
Observed activity (% infection) ([3]; 63 ppm): 39%

Clc1ccc(C2(Cn3cncn3)OCCO2)c(Cl)c1 [azaconazole]
Observed efficacy (% of untreated control) ([4]; 0.25 ppm): 0%
Observed efficacy (% of untreated control) [13]: 0%
Observed efficacy (% of untreated control) [6]: 0%
Observed fungicidal efficacy (% of untreated control) [11]: 0%
Observed activity (% infection) ([7]; 4 ppm): 0%
Observed activity ([8]; 0.016 ppm): 19%

O=C(NCCc1ncc(C(F)(F)F)cc1Cl)c1ccccc1C(F)(F)F [fluopyram]
Observed activity (%) ([14]; 0.004 ppm): 4%

Clc1cccc(C(Cl)(Cl)Cl)n1 [nitrapyrin]
Observed activity (%) ([14]; 0.016 ppm): 10%

CC1CCCCN1CCCOC(=O)c1ccc(Cl)c(Cl)c1 (centres unmarked) [piperalin]
Observed activity (%) ([14]; 0.016 ppm): 12%

CCC(=O)C1=C([O-])CC(C(=O)[O-])CC1=O.[Ca+2] (centres unmarked) [prohexadione-Ca]
Observed activity (%) ([15]; 0.25 ppm): 0%
Observed fungicidal efficacy (%) ([16]; 0.25 ppm): 0%

CCOC(=O)C1CC(=O)C(=C(O)C2CC2)C(=O)C1 (centres unmarked) [trinexapac-ethyl]
Observed activity (%) ([15]; 4 ppm): 2%
Observed fungicidal efficacy (%) ([16]; 4 ppm): 2%
